Measured values from patent publication US5886026A, “Anti-angiogenic compositions and methods of use” (priority 1994, dated 1999).

Tests used:
[1] = system: chick chorioallantoic membrane (CAM); experiment: Chick chorioallantoic membrane (CAM) assay, paclitaxel in methylcellulose disks; type: in vivo
Source text: As noted above, the present invention provides methods and compositions which utilize anti-angiogenic factors. Briefly, within the context of the present invention, anti-angiogenic factors should be understood to include any protein, peptide, chemical, or other molecule, which acts to inhibit vascular growth. A variety of methods may be readily utilized to determine the anti-angiogenic activity of a given factor, including for example, chick chorioallantoic membrane ("CAM") assays. Briefly, as described in more detail below in Examples 2A and 2C, a portion of the shell from a freshly fertilized chicken egg is removed, and a methyl cellulose disk containing a sample of the anti-angiogenic factor to be tested is placed on the membrane. After several days (e.g., 48 hours), inhibition of vascular growth by the sample to be tested may be readily determined by visualization of the chick chorioallantoic membrane in the region surrounding the methyl cellulose disk. Inhibition of vascular growth may also be determined quantitatively, for example, by determining the number and size of blood vessels surrounding the methyl cellulose disk, as compared to a control methyl cellulose disk.
Fertilized, domestic chick embryos were incubated for 3 days prior to shell-less culturing. […] These were then placed into an incubator at 90% relative humidity and 3% CO2 and incubated for 3 days.
The membranes of the 8 day-old shell-less embryo were flooded with 2% glutaraldehyde in 0.1M Na cacodylate buffer; additional fixative was injected under the CAM. After 10 minutes in situ, the CAM was removed and placed into fresh fixative for 2 hours at room temperature. The tissue was then washed overnight in cacodylate buffer containing 6% sucrose. The areas of interest were postfixed in 1% osmium tetroxide for 1.5 hours at 4° C. The tissues were then dehydrated in a graded series of ethanols, solvent exchanged with propylene oxide, and embedded in Spurr resin. Thin sections were cut with a diamond knife, placed on copper grids, stained, and examined in a Joel 1200EX electron microscope. Similarly, […] sections were cut and stained with toluene blue for light microscopy.
This imaging setup was used at a magnification of 160 times which permitted the direct visualization of blood cells within the capillaries; thereby blood flow in areas of interest could be easily assessed and recorded. […] This scale represents the degree of overall inhibition with maximal inhibition represented as a 3 on the avascular gradient scale.

normal chondrocytes = experiment: Chondrocyte viability (Trypan blue); type: cell-based; conditions: 72 hours
neutrophils [2] = experiment: Neutrophil chemiluminescence in response to plasma opsonized CPPD or zymosan; type: cell-based, human
Method: CPPD (triclinic) crystals were prepared. The size distribution of the crystals was approximately 33% less than 10 μm, 58% between 10 and 20 μm and 9% greater than 20 μm. Crystals prepared under the above conditions are pyrogen free and crystals produced under sterile, pyrogen free conditions produced the same magnitude of neutrophil response as crystals prepared under normal, non-sterile laboratory conditions.
(§1) All experiments that studied neutrophil responses to crystals or zymosan in the presence of paclitaxel were performed using plasma opsonized CPPD or zymosan. Opsonization of crystals or zymosan was done with 50% heparinized plasma at a concentration of 75 mg of CPPD or 12 mg of zymosan per ml of 50% plasma. Crystals or zymosan were incubated with plasma for 30 min. at 37° C. and then washed in excess HBSS.
All chemiluminescence studies were performed at a cell concentration of 5,000,000 cells/ml in HBSS with CPPD (50 mg/ml). In all experiments 0.5 ml of cells was added to 25 mg of CPPD or 0.5 mg of zymosan in 1.5 ml capped Eppendorf tubes. 10 μl of luminol dissolved in 25% DMSO in HBSS was added to a final concentration of 1 μM and the samples were mixed to initiate neutrophil activation by the crystals or zymosan. Chemiluminescence was monitored using an LKB Luminometer (Model 1250.) at 37° C. with shaking immediately prior to measurements to resuspend the crystals or zymosan. Control tubes contained cells, drug and luminol (crystals absent).

neutrophils [3] = experiment: Neutrophil degranulation, lysozyme release; type: cell-based, human; conditions: 28 μM, CPPD
Method: as §1
One and a half milliliter Eppendorf tubes containing either 25 mg of CPPD or 1 mg of zymosan were preheated to 37° C. 0.5 ml of cells at 37° C. were added followed by vigorous shaking to initiate the reactions.
Briefly, Micrococcuis lysodeikticzis was suspended at 0.1 mg/ml in 65 mM potassium phosphate buffer, pH 6.2 and the absorbance at 450 nm was adjusted to 0.7 units by dilution. The crystal (or zymosan) and cell supernatant (100 μl) was added to 2.5 ml of the Micrococcus suspension and the decrease in absorbance was monitored.

neutrophils [4] = experiment: Neutrophil viability (LDH release); conditions: 46 μM, one hour, 37° C.
Method: Neutrophils were prepared from freshly collected human citrated whole blood. Briefly, 400 ml of blood were mixed with 80 ml of 4% dextran T500 (Pharmacia LKB, Biotechnology AB Uppsala, Sweden) in HBSS and allowed to settle for 1 h. Plasma was collected continuously and 5 ml applied to 5 ml of Ficoll Paque (Pharmacia) in 15 ml polypropylene tubes (Coming, N.Y.). Following centrifugation at 500×g for 30 min, the neutrophil pellets were washed free of erythrocytes by 20 s of hypotonic shock. Neutrophils were resuspended in HBSS, kept on ice and used for experiments within 3 h. Neutrophil viability and purity was always greater than 90%.
Cells were incubated for 20 minutes at 33° C. then for 10 minutes at 37° C. before addition to crystals or zymosan.

collagenase = experiment: IL-1 induced collagenase expression in chondrocytes (Northern blot); type: cell-based, bovine; conditions: 10^-6 M
Method: C-fos is an oncogene transcription factor shown to be involved and required for the induction of genes involved in cell proliferation and collagenase expression. […] When IL-1 is administered to chondrocytes in vitro there is a transient increase in fos mRNA levels which peak 30-60 minutes later, while collagenase mRNA is detected 9 hours later and continues to increase up to 12 hours (data not shown) after IL-1 stimulation. The fos and collagenase mRNA can be detected using the respective cDNA probes and analyzed by Northern blot analysis. This allows the determination of agents capable of inhibiting collagenase production and an approximation of the step in the collagenase synthetic pathway that is affected by the treatment.
The cells were then incubated for a further 16 hours. Total RNA from bovine articular chondrocytes was isolated by the acidified guanidine isothiocyanate method and the collagenase mRNA determined by Northern blot analysis. The RNA samples were prepared as described above using ^32 P-labeled rat collagenase cDNA.

synovial fibroblasts = experiment: Synoviocyte proliferation (Trypan blue); type: cell-based, bovine; conditions: 24 hours
[5] = Encapsulation of paclitaxel or baccatin in ELVAX:poly-l-lactic acid microspheres; type: physicochemical; conditions: for amount encapsulated: from 500 μg
Method: Microspheres are then prepared in a dissolution machine (Six-spindle dissolution tester, VanderKanp, Van Kell Industries Inc., U.S.A.) in triplicate at 200 rpm, 42° C., for 3 hours. Microspheres so prepared are washed twice in water and sized on the microscope.

**Q.** For `CC(=O)O[C@H]1C(=O)[C@@]2(C)[C@H]([C@H](OC(=O)c3ccccc3)[C@]3(O)C[C@H](OC(=O)[C@H](O)[C@@H](NC(=O)c4ccccc4)c4ccccc4)C(C)=C1C3(C)C)[C@]1(OC(C)=O)CO[C@@H]1C[C@@H]2O` [paclitaxel], which avascular zone diameter ([1]; 48 h exposure, 10μ paclitaxel per 10 ml methylcellulose) is on record?
**A.** Its avascular zone diameter is 6 mm.

**Q.** What about the inhibition of angiogenesis ([1]; 48 hours after application) of the same molecule?
**A.** Its inhibition of angiogenesis is “angiogenesis was inhibited”.

**Q.** What about the “cells arrested in mitosis in avascular zones” value ([1]; CAM histology) of the same molecule?
**A.** Its value is “abundance of cells arrested in mitosis in all three germ layers”.

**Q.** And the “onset of inhibition of angiogenesis” value ([1]; after application)?
**A.** Its value is 9 h.

**Q.** What about the “time without revascularization of avascular zone” value ([1]; after application) of the same molecule?
**A.** Its value is “at least 7 days”.

**Q.** What about the avascular gradient scale ([1]; within 48 hours, depending on concentration) of the same molecule?
**A.** Its avascular gradient scale is 3 (avascularity extending beyond the disk (6 mm in diameter)).

**Q.** And the avascular zone diameter ([1]; within 48 hours, methylcellulose disks)?
**A.** The avascular zone diameter was 6 mm.

**Q.** What about the “cytotoxicity to normal chondrocytes” value (normal chondrocytes) of the same molecule?
**A.** Its value is “no cytotoxicity to normal chondrocytes”.

**Q.** What about the “viability of normal chondrocytes” value (normal chondrocytes; up to 10^-5 M) of the same molecule?
**A.** Its value is “does not affect the viability of normal chondrocytes”.

**Q.** What about the “inhibition of chemiluminescence over time” value (neutrophils [2]; 28 μM, CPPD and zymosan) of the same molecule?
**A.** The value was “significant at all times from 3 to 16 minutes”.

**Q.** What about the “effect on chemiluminescence of controls” value (neutrophils [2]; all concentrations, no stimulus) of the same molecule?
**A.** The value was “no effect on the chemiluminescence values of controls”.

**Q.** And the neutrophil activation (neutrophils [2]; crystal or particulate induced)?
**A.** Its neutrophil activation is “strong inhibitor”.

**Q.** What about the lysozyme release (neutrophils [3]) of the same molecule?
**A.** Its lysozyme release is “reduced lysozyme release”.

**Q.** And the cell death (neutrophils [4])?
**A.** Its cell death is “did not cause cell death”.

**Q.** What about the “collagenase mRNA” value (collagenase) of the same molecule?
**A.** Its value is “not detectable above background”.

**Q.** What about the “inhibition of IL-1 induced collagenase expression” value (collagenase) of the same molecule?
**A.** Its value is “completely inhibited”.

**Q.** What about the “toxicity to synovial fibroblasts” value (synovial fibroblasts; 10^-6 M and 10^-5 M) of the same molecule?
**A.** The value was “toxic to the synovial fibroblasts in vitro”.

**Q.** What about the “cytotoxicity to proliferating synovial fibroblasts” value (synovial fibroblasts) of the same molecule?
**A.** The value was “cytotoxic to proliferating synovial fibroblasts in a concentration dependent manner”.

**Q.** And the minimal effective concentration (synovial fibroblasts; Bos taurus, Fibroblast, read-out: lowest concentration inhibiting proliferation)?
**A.** Its minimal effective concentration is no more than 0.1 µM.

**Q.** And the “encapsulated, % by weight of the polymer” value ([5]; fluorescence)?
**A.** The value was 1.5%.

**Q.** What about the “encapsulated, % of original weight” value ([5]; fluorescence) of the same molecule?
**A.** Its value is 15%.

**Q.** And the amount encapsulated ([5]; fluorescence)?
**A.** Its amount encapsulated is 75 µg.

**Q.** And the “encapsulated, % by weight of the polymer” value ([5]; uv/vis)?
**A.** Its value is 1.2%.

**Q.** What about the “encapsulated, % of original weight” value ([5]; uv/vis) of the same molecule?
**A.** Its value is 12%.

**Q.** And the amount encapsulated ([5]; uv/vis)?
**A.** The amount encapsulated was 58 µg.
